From patent publication US11359180B2, “Method for producing myocardial cells using synthetic peptide” (Toagosei Co., Ltd., priority 2015, dated 2022) come the findings set out here.

Assay [1] relates to iPS cells of human origin (clone 201B7). Put plainly: Induction of myocardial cell differentiation: microscopic observation of beating cells. The class given is cell-based. The source says: Pluripotent stem cells were induced to myocardial cells (production of myocardial cells) using the myocardial cell differentiation-inducing synthetic peptide obtained in Example 1 (sample 1). Specifically, pluripotent stem cells were induced to myocardial cells (production of myocardial cells) by using the myocardial cell differentiation-inducing synthetic peptide obtained in Example 1 (sample 1) in place of activin A in the method for inducing the differentiation of pluripotent stem cells into hepatocytes. The method described in Non Patent Literature 3 was adopted for the method for inducing the differentiation of pluripotent stem cells into hepatocytes. iPS cells of human origin (clone designation: 201B7, source: Takahashi K et al., Cell, 131, 861-872 (2007)) were used for the test cells. These iPS cells were supplied by the Center for iPS Cell Research and Application of Kyoto University.
The iPS cells, which were the test cells, were seeded to 12-well plates coated with an extracellular matrix (Geltrex (registered trademark) in the present case). Using mTeSR1 (STEMCELL Technologies Inc.) for the culture medium, they were cultured (precultured) in a CO2 incubator under conditions of 37° C. and 5% CO2 until an appropriate cell density (here, a confluence of about at least 60% and not more than 70%) had been reached. Medium exchange was performed each day during this preculture.
The sample 1 obtained in Example 1 was then added to the culture medium and cultivation was carried out (main culture). Thus, the pluripotent stem cells were induced to myocardial cells (production of myocardial cells) by using the myocardial cell differentiation-inducing synthetic peptide obtained in Example 1 (sample 1) in place of the activin A in the method for inducing the differentiation of pluripotent stem cells into hepatocytes that is given in Non Patent Literature 3. The following were set up in the present example: a test section (referred to below as the activin A addition section) that used the same method as the method given in Non Patent Literature 3 for inducing the differentiation of pluripotent stem cells to hepatocytes using activin A; a test section (referred to below as the sample 1 addition section) that used the myocardial cell differentiation-inducing synthetic peptide of sample 1 in place of the activin A in the activin A addition section; and a control section to which neither the activin A nor the myocardial cell differentiation-inducing synthetic peptide was added. The specifics are given below. The culture conditions in this main culture are given schematically in FIG. 1.
First, the culture medium was exchanged to base medium 1 in the activin A addition section, the sample 1 addition section, and the control section. In the activin A addition section, activin A (R&D Systems, Inc., Cat. No. 338-AC-D50) was added to the culture vessel (i.e., to the base medium 1) in a quantity that provided an activin A concentration in the culture medium of 100 ng/mL. […]
After this cultivation for 2 days (i.e., the 2nd day after the start of the main culture), the culture medium was exchanged to base medium 2 in the activin A addition section, the sample 1 addition section, and the control section. In the activin A addition section, activin A was added to the culture vessel (i.e., to the base medium 2) in a quantity that provided an activin A concentration in the culture medium of 100 ng/mL. […]

Assay [2] shares this test system. Put plainly: Expression of myocardial cell marker genes by fluorescent cytoimmunostaining. The following applies: sample 1 addition section, 16th day after start of main culture. The assay is classed as cell-based. As to the method:
To check the state of expression of myocardial cell marker genes, cytoimmunostaining (fluorescent immunostaining) of proteins that are the gene products of myocardial marker genes was carried out on the cells in each of the test sections at the 16th day after the start of main culture. The expression of the following as myocardial marker genes was checked: myosin heavy chain (MHC), cardiac Troponin T (cTnT), tropomyosin (TM), and connexin 43 (Cx43).
First, the cells in each test section were subjected to a fixing treatment, a permeabilization treatment, and a blocking treatment. This fixing treatment, permeabilization treatment, and blocking treatment were carried out using a commercial kit (Image-iT Fixation/Permeabilization Kit, Life Technologies Corporation) in accordance with the manual provided with the kit.
Specifically, the culture medium was first removed from the culture vessel (12-well plate) for the cells in each test section on the 16th day after the start of the main culture (16th day after the addition of the myocardial cell differentiation-inducing synthetic peptide). The fixing treatment was performed by adding the fixative solution (Fixative Solution, contained 4 volume % formaldehyde in PBS (pH=7.3)) from the kit at 0.4 mL/well and holding at quiescence for 15 minutes at room temperature. This was followed by washing 3 times using the wash buffer (Wash Buffer, PBS, pH=7.4) from the kit at 0.5 mL/well.
A permeabilization treatment was then performed by adding the permeabilization solution (Permeabilization solution, contained 0.5 volume % Triton (registered trademark) X-100) from the kit at 0.5 mL/well and holding at quiescence for 15 minutes at room temperature. This was followed by washing three times with the wash buffer ([…]) from the kit.
After the cells in each well had been washed with PBS-T (PBS containing 0.25 volume % Triton (registered trademark) X-100), a blocking treatment was performed by adding the blocking solution (Blocking Solution, contained 3 weight/volume % (w/v %) BSA fraction V in DPBS (Dulbecco's PBS) (pH=7.4)) from the kit to each well and standing at quiescence overnight (about 18 hours) at 4° C.
After this blocking treatment, the primary antibody dilutions were added to each well followed by holding at quiescence for 2 hours at room temperature; the primary antibody dilutions were prepared by the dilution of the specified primary antibodies to a suitable antibody concentration using the blocking solution used in the blocking treatment.
The following primary antibodies were used as these primary antibodies: anti-myosin heavy chain antibody, anti-cardiac Troponin T antibody, anti-tropomyosin antibody, and anti-connexin 43 antibody. […]

With LLLLLLVGLTAPAGKKRTLRKNDRKKR [sample 1], the “number of beating cells present (abundance ratio) compared to 9th day” value in assay [1] (sample 1 addition section, 8 μM, 10th day after start of main culture) is listed as “had increased”. Also, in assay [1] (sample 1 addition section, 8 μM, 17th day after start of main culture, 12-well plate), the “number of beating cells” value is on record as “approximately 38 beating cells/well”. Besides, in assay [1] (sample 1 addition section, repeated tests, 17th day after start of main culture), the “number of beating cells (abundance ratio), average” value is listed as “about 40 per 1 well of the 12-well plate”. Besides, the “probability that at least 1 beating cell was present per 1 well” value in assay [1] (sample 1 addition section, tests independently repeated a plurality of times, 12-well plate) is listed as “at least 95%”. In assay [2] (FIG. 2), the “expression of cardiac Troponin T in comparison to control section” value is “substantially increased” and the “expression of myosin heavy chain in comparison to control section” value is “substantially increased”. In assay [2] (FIG. 3), the “expression of connexin 43 in comparison to control section” value is “substantially increased” and the “expression of tropomyosin in comparison to control section” value is “substantially increased”.

B1: activin A: peptide having approximately 140 amino acid residues (R&D Systems, Cat. No. 338-AC-D50), used in the hepatocyte differentiation-inducing method (protein, UniProt P08476 311-426, looked up)
Inhibin beta A chain: GLECDGKVNICCKKQFFVSFKDIGWNDWIIAPSGYHANYCEGECPSHIAGTSGSSLSFHSTVINHYRMRGHSPFANLKSCCVPTKLRPMSMLYYDDGQNIIKKDIQNMIVEECGCS
modifications: Inhibin beta A chain
notes: peptide having approximately 140 amino acid residues (R&D Systems, Cat. No. 338-AC-D50), used in the hepatocyte differentiation-inducing method
On to B1, for which, in assay [1] (activin A addition section, 100 ng/mL, daily observation during main culture), the “presence of beating cells” value is “could not be confirmed”.
